Data on one compound can be found in ChEMBL document CHEMBL3421569, “Stemistry: the control of stem cells in situ using chemistry” (2015).

The nature of assay [1]: Induction of human ESC differentiation assessed as increase in microphthalmia-associated transcription factor expression measured over 8 weeks relative to total pigmented area. The format is functional, Embryonic stem cell.
Assay [2] is described as follows: Induction of human ESC differentiation assessed as appearance of pigmented area measured over 8 weeks relative to control. The format is functional, Embryonic stem cell.

`NC(=O)c1cccnc1` [NIACINAMIDE]: the results for the Activity in assay [1] and in assay [2] were 5% and above 70%, respectively.
